Assay in all cases: relative viability (nuclei count vs DMSO), 5 days (fraction); higher = more cells survive
Compound in assay [1]: Cc1ccc(NC(=O)c2ccc(CN3CCN(C)CC3)cc2)cc1Nc1nc(-c2cccnc2)cs1 [Masitinib] + Nc1ncn([C@H]2C[C@H](O)[C@@H](CO)O2)c(=O)n1 [Decitabine] (partner 2 µM)
A digest of the protocol: (§1)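 Relative viability equals treated-well nuclei counts divided by vehicle-well nuclei counts. Counts came from 4× images of lung cancer cell lines grown in 1536-well plates for 5 days after pin-tool dosing on the day after seeding. Dosing used one drug alone or a fixed anchor-drug dose plus five library-drug doses (not always all listed) in √10 steps, and values are medians of duplicate plates.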

Compound in assay [2]: Cc1ccc(NC(=O)c2ccc(CN3CCN(C)CC3)cc2)cc1Nc1nc(-c2cccnc2)cs1 [Masitinib] + Cc1nc(Nc2ncc(C(=O)Nc3c(C)cccc3Cl)s2)cc(N2CCN(CCO)CC2)n1 [Dasatinib] (partner 0.075 µM)
The gist of the method:
as §1

Compound in assay [3]: CC1=CC(=CC=C1)NC2=NC(=CS2)C3=CC=NC=C3 + O=C(CCCCCCC(=O)Nc1ccccc1)NO [Vorinostat] (partner 1 µM)
The gist of the method: as §1

Compound in assay [4]: Cc1ccc(NC(=O)c2ccc(CN3CCN(C)CC3)cc2)cc1Nc1nc(-c2cccnc2)cs1 [Masitinib] + O=C(CCCCCCC(=O)Nc1ccccc1)NO [Vorinostat] (partner 1 µM)
A digest of the protocol: as §1

Regarding NCI-H441, the relative viability in assay [1] (first compound 0.01 µM) was found to be 0.214; in assay [1] (first compound 0.03162 µM), 0.23; in assay [1] (first compound 0.1 µM) it was 0.262; in assay [1] (first compound 0.3162 µM) it was 0.233; in assay [1] (first compound 1 µM), 0.244; in assay [2] (first compound 0.01 µM), 0.846. Further, the relative viability in assay [2] (first compound 0.03162 µM) turned out to be 0.623; in assay [2] (first compound 0.1 µM), 0.723; in assay [2] (first compound 0.3162 µM), 0.659; in assay [2] (first compound 1 µM) it was 0.511; in assay [3] (first compound 0.08 µM), 0.705; in assay [3] (first compound 0.253 µM), 0.955. The relative viability is 0.842 in assay [3] (first compound 0.8 µM); 0.746 in assay [3] (first compound 2.53 µM); 0.76 in assay [3] (first compound 8 µM); 0.856 in assay [4] (first compound 0.01 µM); 0.75 in assay [4] (first compound 0.03162 µM); 1.12 in assay [4] (first compound 0.1 µM). Also, the relative viability was 1.01 in assay [4] (first compound 0.3162 µM) and 0.894 in assay [4] (first compound 1 µM).
For the cell line NCI-H358, the relative viability was found to be 0.184 in assay [1] (first compound 0.01 µM); 0.195 in assay [1] (first compound 0.03162 µM); 0.243 in assay [1] (first compound 0.1 µM); 0.189 in assay [1] (first compound 0.3162 µM); 0.192 in assay [1] (first compound 1 µM); 0.155 in assay [2] (first compound 0.01 µM). Moreover, the relative viability in assay [2] (first compound 0.03162 µM) is 0.158; in assay [2] (first compound 0.1 µM), 0.166; in assay [2] (first compound 0.3162 µM), 0.161; in assay [2] (first compound 1 µM), 0.133; in assay [3] (first compound 0.08 µM) it was 0.633; in assay [3] (first compound 0.253 µM) it was 0.653. Besides, the relative viability came out at 0.518 in assay [3] (first compound 0.8 µM); 0.662 in assay [3] (first compound 2.53 µM); 0.624 in assay [3] (first compound 8 µM); 0.72 in assay [4] (first compound 0.01 µM); 0.658 in assay [4] (first compound 0.03162 µM); 0.773 in assay [4] (first compound 0.1 µM). Moreover, the relative viability in assay [4] (first compound 0.3162 µM) worked out at 0.641; in assay [4] (first compound 1 µM), 0.616.
As for SW 900, the relative viability in assay [1] (first compound 0.01 µM) came out at 0.349; in assay [1] (first compound 0.03162 µM), 0.438; in assay [1] (first compound 0.1 µM) it was 0.452; in assay [1] (first compound 0.3162 µM), 0.519; in assay [1] (first compound 1 µM) it was 0.442; in assay [2] (first compound 0.01 µM) it was 0.613. In addition, the relative viability in assay [2] (first compound 0.03162 µM) stood at 0.473; in assay [2] (first compound 0.1 µM), 0.706; in assay [2] (first compound 0.3162 µM), 0.499; in assay [2] (first compound 1 µM), 0.477; in assay [3] (first compound 0.08 µM), 0.433; in assay [3] (first compound 0.253 µM), 0.357. The relative viability in assay [3] (first compound 0.8 µM) amounted to 0.516; in assay [3] (first compound 2.53 µM), 0.33; in assay [3] (first compound 8 µM), 0.188; in assay [4] (first compound 0.01 µM) it was 0.48; in assay [4] (first compound 0.03162 µM) it was 0.502; in assay [4] (first compound 0.1 µM) it was 0.375. Further, the relative viability was 0.259 in assay [4] (first compound 0.3162 µM) and 0.505 in assay [4] (first compound 1 µM).
As for NCI-H1395, the relative viability was determined as 0.734 in assay [1] (first compound 0.01 µM); 0.705 in assay [1] (first compound 0.03162 µM); 0.694 in assay [1] (first compound 0.1 µM); 0.703 in assay [1] (first compound 0.3162 µM); 0.62 in assay [1] (first compound 1 µM); 0.415 in assay [2] (first compound 0.01 µM). For the same cell line, the relative viability in assay [2] (first compound 0.03162 µM) was 0.404; in assay [2] (first compound 0.1 µM) it was 0.404; in assay [2] (first compound 0.3162 µM) it was 0.395; in assay [2] (first compound 1 µM), 0.426; in assay [3] (first compound 0.08 µM), 0.618; in assay [3] (first compound 0.8 µM) it was 0.804. Besides, the relative viability in assay [3] (first compound 2.53 µM) was 0.478; in assay [3] (first compound 8 µM) it was 0.537; in assay [4] (first compound 0.01 µM) it was 0.765; in assay [4] (first compound 0.03162 µM), 0.613; in assay [4] (first compound 0.1 µM), 0.787; in assay [4] (first compound 0.3162 µM) it was 0.774. For the same cell line, in assay [4] (first compound 1 µM), the relative viability amounted to 0.637.
SK-MES-1: the relative viability in assay [1] (first compound 0.01 µM) came to 0.329; in assay [1] (first compound 0.03162 µM), 0.399; in assay [1] (first compound 0.1 µM) it was 0.376; in assay [1] (first compound 0.3162 µM), 0.39; in assay [1] (first compound 1 µM), 0.337; in assay [2] (first compound 0.01 µM) it was 0.319. In addition, the relative viability turned out to be 0.359 in assay [2] (first compound 0.03162 µM); 0.392 in assay [2] (first compound 0.1 µM); 0.286 in assay [2] (first compound 0.3162 µM); 0.335 in assay [2] (first compound 1 µM); 0.851 in assay [3] (first compound 0.08 µM); 0.829 in assay [3] (first compound 0.253 µM). Also, the relative viability in assay [3] (first compound 0.8 µM) stood at 0.819; in assay [3] (first compound 2.53 µM), 0.86; in assay [3] (first compound 8 µM) it was 0.822; in assay [4] (first compound 0.01 µM), 0.876; in assay [4] (first compound 0.03162 µM) it was 1.15; in assay [4] (first compound 0.1 µM), 1.03. In addition, the results for the relative viability in assay [4] (first compound 0.3162 µM) and in assay [4] (first compound 1 µM) were 0.984 and 1.07, respectively.
With PC-14, the relative viability in assay [1] (first compound 0.01 µM) worked out at 0.217; in assay [1] (first compound 0.03162 µM), 0.202; in assay [1] (first compound 0.1 µM), 0.192; in assay [1] (first compound 0.3162 µM), 0.16; in assay [1] (first compound 1 µM) it was 0.25; in assay [2] (first compound 0.01 µM), 0.266. Moreover, the relative viability in assay [2] (first compound 0.03162 µM) stood at 0.241; in assay [2] (first compound 0.1 µM), 0.28; in assay [2] (first compound 0.3162 µM), 0.181; in assay [2] (first compound 1 µM) it was 0.217; in assay [3] (first compound 0.08 µM), 0.84; in assay [3] (first compound 0.253 µM) it was 0.674. Also, the relative viability came out at 0.715 in assay [3] (first compound 0.8 µM); 0.867 in assay [3] (first compound 2.53 µM); 0.666 in assay [3] (first compound 8 µM); 0.716 in assay [4] (first compound 0.01 µM); 0.79 in assay [4] (first compound 0.03162 µM); 0.767 in assay [4] (first compound 0.1 µM). Moreover, the values for the relative viability in assay [4] (first compound 0.3162 µM) and in assay [4] (first compound 1 µM) were 0.691 and 0.865, respectively.

The values above are taken from the supplement of paper PMC10307832.
